Key:
Canis familiaris [1] = assay: Cardiotonic activity by increasing heart rate (HR) in phenobarbital-anesthetized dogs after intravenous administration; type: functional, Canis lupus familiaris
Phosphodiesterase 3 = Phosphodiesterase 3 (Homo sapiens, UniProt Q14432+Q13370); assay: Cardiotonic effect by inhibition of cAMP phosphodiesterase (PDE III); type: protein assay, Canis lupus familiaris
Canis familiaris [2] = assay: Cardiotonic activity by decreasing mean arterial blood pressure(MAP) in phenobarbital-anesthetized dogs after intravenous administration; type: functional, Canis lupus familiaris, Artery
Canis familiaris [3] = assay: Cardiotonic activity in increasing contractility in phenobarbital-anesthetized dogs after intravenous administration; type: functional; details: Canis lupus familiaris

IC50 (Phosphodiesterase 3) [µM] | SMILES | Heart rate (Canis familiaris [1]) [beats min-1] | MAP (Canis familiaris [2]) [mmHg] | ED50 (Canis familiaris [3]) [mg/kg]
38 | CCCc1nc(O)c(C#N)cc1-c1ccncc1 | 25 | 20 | 0.748
31 | Cc1nc(O)c(N)cc1-c1ccncc1 | 9 | 10 | 0.055
12 | CCc1nc(O)c(C#N)cc1-c1ccncc1 | 19 | 12 | 0.12
 | Nc1cc(-c2ccncc2)c[nH]c1=O [INAMRINONE] | 13 | 16 | 1.89
 | Cc1[nH]c(=O)c(C#N)cc1-c1ccncc1 [MILRINONE] | 14 | 10 | 0.037
